The source of these data is ChEMBL document CHEMBL5150044, “Macrocyclization of Quinazoline-Based EGFR Inhibitors Leads to Exclusive Mutant Selectivity for EGFR L858R and Del19” (J Med Chem, 2022).

The target in experiment [1] is Epidermal growth factor receptor (Homo sapiens, UniProt P00533, L858R).
The target of experiment [2] is Dual specificity tyrosine-phosphorylation-regulated kinase 1A (Homo sapiens) (UniProt Q13627). As to the kind of experiment: Binding affinity to recombinant DYRK1 (unknown origin) assessed as change in melting temperature 10 uM by differential scanning fluorimetry. Background: DSF heats the sample and reads unfolding from a dye or from intrinsic fluorescence.
The target of experiment [3] is T1, Cyclin-G-associated kinase (Homo sapiens) (UniProt O14976).
T1 sequence (whole entry): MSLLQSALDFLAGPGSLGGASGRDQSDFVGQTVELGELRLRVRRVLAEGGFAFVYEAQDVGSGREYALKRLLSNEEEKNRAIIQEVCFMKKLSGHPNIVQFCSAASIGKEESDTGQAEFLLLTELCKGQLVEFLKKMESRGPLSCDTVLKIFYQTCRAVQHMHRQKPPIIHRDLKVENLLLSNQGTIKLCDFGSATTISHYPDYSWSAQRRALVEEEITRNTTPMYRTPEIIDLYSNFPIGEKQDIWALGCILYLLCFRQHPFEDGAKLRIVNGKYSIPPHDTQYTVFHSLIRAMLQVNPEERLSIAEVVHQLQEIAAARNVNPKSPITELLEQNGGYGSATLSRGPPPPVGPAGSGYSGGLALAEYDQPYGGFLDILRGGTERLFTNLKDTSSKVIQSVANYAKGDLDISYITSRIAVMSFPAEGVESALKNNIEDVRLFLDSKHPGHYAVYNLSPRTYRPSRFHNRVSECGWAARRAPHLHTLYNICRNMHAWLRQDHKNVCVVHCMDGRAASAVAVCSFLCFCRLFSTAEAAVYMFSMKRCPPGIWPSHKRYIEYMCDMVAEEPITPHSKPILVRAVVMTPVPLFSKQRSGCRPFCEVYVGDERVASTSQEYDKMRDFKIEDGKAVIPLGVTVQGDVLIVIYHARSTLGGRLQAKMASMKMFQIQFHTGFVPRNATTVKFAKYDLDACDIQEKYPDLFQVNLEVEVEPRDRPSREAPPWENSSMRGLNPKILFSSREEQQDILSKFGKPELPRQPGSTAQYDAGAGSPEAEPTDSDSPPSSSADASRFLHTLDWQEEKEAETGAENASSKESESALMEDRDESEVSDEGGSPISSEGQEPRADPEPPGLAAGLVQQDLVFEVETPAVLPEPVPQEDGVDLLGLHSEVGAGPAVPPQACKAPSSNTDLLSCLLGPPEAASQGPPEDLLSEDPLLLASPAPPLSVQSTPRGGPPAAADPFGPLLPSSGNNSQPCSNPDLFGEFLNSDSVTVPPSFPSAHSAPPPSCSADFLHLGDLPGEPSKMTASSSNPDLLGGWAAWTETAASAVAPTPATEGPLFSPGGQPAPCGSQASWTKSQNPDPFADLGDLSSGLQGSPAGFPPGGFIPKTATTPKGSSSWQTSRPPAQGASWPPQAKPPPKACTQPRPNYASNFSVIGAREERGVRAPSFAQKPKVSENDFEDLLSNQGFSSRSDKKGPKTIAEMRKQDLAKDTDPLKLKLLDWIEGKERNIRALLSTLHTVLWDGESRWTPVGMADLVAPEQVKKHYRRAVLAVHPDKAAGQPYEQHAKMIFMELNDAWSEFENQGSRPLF
Kind of experiment: Binding affinity to recombinant GAK (unknown origin) assessed as change in melting temperature 10 uM by differential scanning fluorimetry.

Experiment [4] deals with BMP-2-inducible protein kinase (Homo sapiens) (UniProt Q9NSY1). Kind of experiment: Binding affinity to recombinant BMP2K (unknown origin) assessed as change in melting temperature 10 uM by differential scanning fluorimetry.
In experiment [5] the target is T2, Serine/threonine-protein kinase 17B (Homo sapiens) (UniProt O94768).
T2 sequence (whole entry): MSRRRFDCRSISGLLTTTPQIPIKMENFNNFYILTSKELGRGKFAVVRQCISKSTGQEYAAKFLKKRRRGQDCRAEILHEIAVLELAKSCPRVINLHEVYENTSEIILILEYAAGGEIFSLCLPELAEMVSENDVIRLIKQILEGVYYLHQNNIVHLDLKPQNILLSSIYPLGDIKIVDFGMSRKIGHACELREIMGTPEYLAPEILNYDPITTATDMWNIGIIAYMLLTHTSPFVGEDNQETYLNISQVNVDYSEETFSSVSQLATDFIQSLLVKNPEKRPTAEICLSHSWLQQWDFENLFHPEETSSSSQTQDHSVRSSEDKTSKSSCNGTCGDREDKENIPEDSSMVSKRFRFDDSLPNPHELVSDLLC
Kind of experiment: Binding affinity to recombinant […] (unknown origin) assessed as change in melting temperature 10 uM by differential scanning fluorimetry.

The subject of experiment [6] is BaF3. Kind of experiment: cells. In kind it is functional, cell-based. Particulars: Mus musculus, BaF3, 72 h.
Description: Antiproliferative activity against mouse BaF3 cells expressing Del19 assessed as cell viability measured after 72 hrs hrs by CellTiter Glo assay
Experiment [7] has as its system BaF3. Kind of experiment: cells. In kind it is functional, cell-based. Particulars: Mus musculus, BaF3, 72 h. This is another data set of the same source.
Experiment [8] concerns BaF3. Kind of experiment: cells. The format is functional, cell-based. The following applies: Mus musculus, BaF3, 72 h. This is another data set of the same source.
Experiment [9] has as its target T3, Mitogen-activated protein kinase 1 and 3 (ERK2 and ERK1) (Mus musculus) (UniProt P63085+Q63844). Kind of experiment: Inhibition of ERK1/2 phosphorylation in mouse BaF3 cells harboring L858R mutant assessed as ERK1/2 phosphorylation at 10 to 1000 nM incubated for 8 hrs by Western blot analysis. The format is cell-based. Particulars: dose 10-1000 nM.
Experiment [10] deals with T3, Mitogen-activated protein kinase 1 and 3 (ERK2 and ERK1) (Mus musculus). The format is cell-based. Particulars: BaF3, dose 10-1000 nM, time 8.0 hrs.
For experiment [11] the target is unchanged. In kind it is cell-based. Particulars: BaF3, dose 10-1000 nM, time 8.0 hrs. The source holds these as a separate data set.
In experiment [12] the target is RAC-alpha serine/threonine-protein kinase (Mus musculus) (UniProt P31750). Kind of experiment: Inhibition of AKT phosphorylation in mouse BaF3 cells harboring L858R mutant assessed as […] phosphorylation at 10 to 1000 nM incubated for 8 hrs by Western blot analysis. In kind it is cell-based. The following applies: dose 10-1000 nM. A general note: In western blotting, separated proteins are transferred to a membrane and probed.

The target is the same in experiment [13]. Kind of experiment: Inhibition of AKT phosphorylation in mouse BaF3 cells harboring Del19 mutant assessed as […] phosphorylation at 10 to 1000 nM incubated for 8 hrs by Western blot analysis. The format is cell-based. Particulars: dose 10-1000 nM.
For experiment [14] the target is unchanged. In kind it is cell-based. Particulars: BaF3, dose 10-1000 nM, time 8.0 hrs.
The subject of experiment [15] is BaF3. Kind of experiment: cells. The following applies: Mus musculus, BaF3, 72 h.
Description: Antiproliferative activity against mouse BaF3 cells expressing EGFR WT assessed as cell viability measured after 72 hrs hrs by CellTiter Glo assay
Experiment [16] relates to BaF3. As to the kind of experiment: cells. Particulars: Mus musculus, BaF3, 72 h. The source holds these as a separate data set.

pIC50: −log10 of the molar value. Active and inactive are the calls of the source. The rule behind the calls is not given here. Bounds are passed on as bounds.

Chain of RAC-alpha serine/threonine-protein kinase (Mus musculus) (P31750 whole entry): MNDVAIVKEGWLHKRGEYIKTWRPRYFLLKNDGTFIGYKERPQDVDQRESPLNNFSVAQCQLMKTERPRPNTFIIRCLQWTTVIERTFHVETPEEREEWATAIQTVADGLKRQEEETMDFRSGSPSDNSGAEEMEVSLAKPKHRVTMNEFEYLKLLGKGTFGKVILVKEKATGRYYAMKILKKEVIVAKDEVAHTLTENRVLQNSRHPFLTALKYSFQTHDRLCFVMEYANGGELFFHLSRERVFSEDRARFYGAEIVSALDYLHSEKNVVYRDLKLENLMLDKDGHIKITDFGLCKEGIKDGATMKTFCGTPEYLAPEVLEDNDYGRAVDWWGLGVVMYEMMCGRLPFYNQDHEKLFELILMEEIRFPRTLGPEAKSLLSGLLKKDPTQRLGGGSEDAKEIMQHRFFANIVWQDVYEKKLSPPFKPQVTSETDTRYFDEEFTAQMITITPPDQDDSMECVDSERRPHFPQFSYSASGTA
T3 sequence (P63085 whole entry, looked up): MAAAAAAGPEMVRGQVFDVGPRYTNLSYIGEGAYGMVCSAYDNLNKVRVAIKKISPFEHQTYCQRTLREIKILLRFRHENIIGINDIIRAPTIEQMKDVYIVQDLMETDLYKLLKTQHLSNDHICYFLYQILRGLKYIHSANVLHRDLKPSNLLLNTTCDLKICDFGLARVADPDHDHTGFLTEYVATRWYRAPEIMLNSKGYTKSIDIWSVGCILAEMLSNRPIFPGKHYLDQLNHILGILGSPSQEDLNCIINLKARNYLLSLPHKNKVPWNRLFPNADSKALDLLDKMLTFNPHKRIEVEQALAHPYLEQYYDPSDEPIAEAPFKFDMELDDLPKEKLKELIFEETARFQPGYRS
T3 sequence (Q63844 whole entry, looked up): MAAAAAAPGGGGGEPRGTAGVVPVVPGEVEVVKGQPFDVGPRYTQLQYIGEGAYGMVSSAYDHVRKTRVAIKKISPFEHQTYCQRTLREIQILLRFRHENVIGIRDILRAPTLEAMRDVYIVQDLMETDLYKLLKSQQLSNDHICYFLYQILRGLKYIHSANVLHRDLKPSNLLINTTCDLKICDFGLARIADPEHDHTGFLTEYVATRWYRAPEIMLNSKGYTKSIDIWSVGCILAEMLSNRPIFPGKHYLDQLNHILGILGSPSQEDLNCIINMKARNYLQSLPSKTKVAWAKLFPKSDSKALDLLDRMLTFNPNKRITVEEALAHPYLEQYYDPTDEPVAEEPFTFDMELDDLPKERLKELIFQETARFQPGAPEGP
Chain of Epidermal growth factor receptor (P00533 25-1210 L858R limits assumed): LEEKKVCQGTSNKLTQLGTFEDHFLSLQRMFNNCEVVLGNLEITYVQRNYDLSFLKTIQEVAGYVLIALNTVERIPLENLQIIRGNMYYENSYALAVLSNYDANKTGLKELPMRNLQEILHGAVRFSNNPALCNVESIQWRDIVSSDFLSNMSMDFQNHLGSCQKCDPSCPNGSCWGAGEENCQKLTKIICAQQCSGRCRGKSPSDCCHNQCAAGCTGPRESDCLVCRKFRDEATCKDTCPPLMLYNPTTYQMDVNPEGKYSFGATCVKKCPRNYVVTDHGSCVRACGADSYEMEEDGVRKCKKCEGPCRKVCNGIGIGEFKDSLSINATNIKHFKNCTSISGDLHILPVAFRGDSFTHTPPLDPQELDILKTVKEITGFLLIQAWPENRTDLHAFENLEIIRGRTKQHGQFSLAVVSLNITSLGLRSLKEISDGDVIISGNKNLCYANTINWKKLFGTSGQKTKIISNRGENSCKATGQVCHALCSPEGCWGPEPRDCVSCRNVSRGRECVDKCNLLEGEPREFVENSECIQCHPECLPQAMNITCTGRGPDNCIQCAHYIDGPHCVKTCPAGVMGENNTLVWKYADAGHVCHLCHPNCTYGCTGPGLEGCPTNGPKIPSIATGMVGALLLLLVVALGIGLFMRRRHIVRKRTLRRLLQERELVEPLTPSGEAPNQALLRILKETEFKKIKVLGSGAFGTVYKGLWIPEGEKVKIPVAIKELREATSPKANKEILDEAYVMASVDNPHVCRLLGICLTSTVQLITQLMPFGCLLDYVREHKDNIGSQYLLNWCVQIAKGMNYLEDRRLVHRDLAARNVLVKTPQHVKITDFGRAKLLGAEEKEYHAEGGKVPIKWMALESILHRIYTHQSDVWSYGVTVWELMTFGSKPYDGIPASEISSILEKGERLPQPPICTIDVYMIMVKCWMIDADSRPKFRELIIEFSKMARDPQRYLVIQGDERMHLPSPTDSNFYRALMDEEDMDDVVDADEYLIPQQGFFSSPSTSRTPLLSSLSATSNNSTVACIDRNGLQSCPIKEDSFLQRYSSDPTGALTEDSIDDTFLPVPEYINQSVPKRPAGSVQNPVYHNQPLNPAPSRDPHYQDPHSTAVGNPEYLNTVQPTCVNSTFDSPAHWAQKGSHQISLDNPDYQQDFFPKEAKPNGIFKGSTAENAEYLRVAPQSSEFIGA
Chain of BMP-2-inducible protein kinase (Homo sapiens) (Q9NSY1 whole entry, looked up): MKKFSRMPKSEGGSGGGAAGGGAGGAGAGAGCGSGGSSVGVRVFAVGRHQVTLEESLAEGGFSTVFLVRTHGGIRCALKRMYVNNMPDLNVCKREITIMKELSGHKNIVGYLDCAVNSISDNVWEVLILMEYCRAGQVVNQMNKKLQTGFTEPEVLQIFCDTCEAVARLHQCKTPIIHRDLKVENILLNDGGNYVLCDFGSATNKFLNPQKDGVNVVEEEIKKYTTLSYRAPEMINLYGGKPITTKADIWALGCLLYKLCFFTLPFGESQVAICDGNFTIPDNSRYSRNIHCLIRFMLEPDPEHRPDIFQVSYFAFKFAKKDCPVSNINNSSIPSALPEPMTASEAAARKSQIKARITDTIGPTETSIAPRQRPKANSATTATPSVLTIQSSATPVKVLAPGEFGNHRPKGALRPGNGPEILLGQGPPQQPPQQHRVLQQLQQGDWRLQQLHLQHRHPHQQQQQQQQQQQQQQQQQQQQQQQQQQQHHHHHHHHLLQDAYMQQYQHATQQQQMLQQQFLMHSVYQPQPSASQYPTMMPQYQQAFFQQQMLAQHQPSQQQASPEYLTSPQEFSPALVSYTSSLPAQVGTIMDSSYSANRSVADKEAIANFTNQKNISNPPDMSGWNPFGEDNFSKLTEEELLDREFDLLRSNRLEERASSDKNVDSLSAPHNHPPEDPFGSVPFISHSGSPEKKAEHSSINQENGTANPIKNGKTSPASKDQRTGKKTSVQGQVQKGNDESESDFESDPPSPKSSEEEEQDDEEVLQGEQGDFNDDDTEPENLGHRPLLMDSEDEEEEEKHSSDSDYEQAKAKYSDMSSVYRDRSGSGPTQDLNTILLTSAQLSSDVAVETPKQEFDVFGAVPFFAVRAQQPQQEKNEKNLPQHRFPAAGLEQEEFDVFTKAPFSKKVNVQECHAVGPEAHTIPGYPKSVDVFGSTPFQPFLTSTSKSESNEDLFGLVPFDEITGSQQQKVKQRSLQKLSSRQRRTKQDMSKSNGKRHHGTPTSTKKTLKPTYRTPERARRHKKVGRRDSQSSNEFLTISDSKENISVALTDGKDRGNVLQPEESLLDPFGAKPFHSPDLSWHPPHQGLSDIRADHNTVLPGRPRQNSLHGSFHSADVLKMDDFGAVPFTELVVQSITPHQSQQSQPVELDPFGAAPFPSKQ

What is called pIC50 is the negative decadic logarithm of the IC50, by convention in mol/L. Low values mean a high IC50, high ones a low IC50. Usually ΔTm stands for the change in melting temperature against a reference sample. As for `COc1cc2ncnc(Nc3cc(Cl)c(F)cc3O)c2cc1O`, the pIC50 is 7.73 in experiment [1]; 6.92 with BaF3 [6]; 6.92 with BaF3 [7]; 5.29 in the experiment with BaF3 [8]; 6.69 in the experiment with BaF3 [15]; 7.03 in the experiment on BaF3 [16]. In addition, the ΔTm in experiment [2], in experiment [3], in experiment [4] and in experiment [5] was over 3 °C throughout. Moreover, the inhibition result in experiment [9], in [10], in experiment [11], in [12], in experiment [13] and in [14] was “Active” throughout.
